Source: patent US6740505B1, “Production of proteins” (SmithKline Beecham Corporation, priority 1998, dated 2004)

Experiments:
[1] = test system: recombinant murine NS0 cells transfected with a IgG1 humanised anti-CD23 antibody; assay: Viable cell count (Erythrosin B exclusion, haemocytometer) in repeated batch NS0 cell culture; type: cell-based; conditions: 0.075 mM butyrate
Description: (§1) Five Erlenmeyer flasks were inoculated with recombinant murine NS0 cells transfected with a IgG1 humanised anti-CD23 antibody (produced according to the method of Bebbington et al, as supra) in a cholesterol containing protein free/glutamine free medium at 0.2×10^6 cells/ml. Sodium butyrate (0.5M) in PBS was added to the flasks at the following concentrations: 0 mM; 0.025 mM; 0.05 mM; 0.075 mM and 0.10 mM and were incubated at […] and 100 rpm in a shake incubator for 4 days. Subsequently, the flasks were subcultured every four days to a start count of […], maintaining sodium butyrate concentrations as above in each flask. The flasks were sampled and assayed before each subculture. The culture was continued in this ‘draw-fill’/‘repeated batch’ manner for 56 days, maintaining sodium butyrate concentrations at the concentrations indicated throughout. Viable cells were counted for each sample taken as outlined below. Antibody titre for each sample taken was determined as outlined below.
Culture was diluted as necessary in culture medium. It was examined microscopically in a haemocytometer (Neubauer counting chamber) using Erythrosin B (Sigma) 0.04% w/v in PBS, pH 7 as an exclusion dye. The number of viable and non-viable cells per milliliter and the percentage viability of the culture was calculated.

[2] = test system: recombinant murine NS0 cells transfected with a IgG1 humanised anti-CD23 antibody; assay: Antibody titre (Human IgG by nephelometric method) in repeated batch NS0 cell culture; type: cell-based; conditions: 56 day culture
Description: as §1
The quantity of Human IgG was determined by a Nephelometric method (Tanford, C. (1961) Light Scattering. Physical Chemistry of Macromolecules. New York:Wiley, 275-316; Whicher J. T et al (1978), “An evaulation of Hyland laser nephelometer PDQ system for the measurement of immunoglobulins”; Ann.Clin.Biochem. 15, p77-85), whereby the formation of insoluble immune-precipitin of Human IgG with highly specific antibody to Human IgG was measured. The Nephelometer measured the intensity of the light scattered by the insoluble immune-precipitin in reaction solution. The change in intensity of the scattered light signal is proportional to the concentration of Human IgG in tested sample. The quantity of Human IgG in the sample is measured from a standard curve constructed from known concentration of purified Human IgG versus the rate of light scatter signal.

CCCC(=O)[O-].[Na+] [Butyrate, sodium butyrate]
decrease in viable cell count compared to control ([1]; by 56 day): narrowed considerably
viable cell count compared to control ([1]; early stages of the culturing process): slight decrease in viable cell count
antibody titre over control ([2]; 0.075 mM butyrate maintained in medium): marked increase in antibody titre over control
antibody titre over control ([2]; 0.075 mM butyrate maintained in medium, listed as butyrate): marked increase over control
consistency of protein production during the culturing process ([2]; 0.075 mM butyrate): more consistent production
antibody titre over control ([2]; 0.1 mM butyrate maintained in medium): marked increase in antibody titre over control
consistency of protein production during the culturing process ([2]; 0.1 mM butyrate): erratic protein production
